Earlier results as cited in patent US8686137B2, “Heterocyclic compounds and their uses” (Amgen Inc., priority 2010, dated 2014).

Tests used:
[1] = test system: model of systemic lupus erythematosis; conditions: in vivo
[2] = test system: mouse model of rheumatoid arthritis; conditions: in vivo
[3] = test system: ovalbumin-induced airway inflammation
[4] = biological target: T1, p110δ (Homo sapiens, UniProt O00329)
T1 sequence (O00329 1-1044): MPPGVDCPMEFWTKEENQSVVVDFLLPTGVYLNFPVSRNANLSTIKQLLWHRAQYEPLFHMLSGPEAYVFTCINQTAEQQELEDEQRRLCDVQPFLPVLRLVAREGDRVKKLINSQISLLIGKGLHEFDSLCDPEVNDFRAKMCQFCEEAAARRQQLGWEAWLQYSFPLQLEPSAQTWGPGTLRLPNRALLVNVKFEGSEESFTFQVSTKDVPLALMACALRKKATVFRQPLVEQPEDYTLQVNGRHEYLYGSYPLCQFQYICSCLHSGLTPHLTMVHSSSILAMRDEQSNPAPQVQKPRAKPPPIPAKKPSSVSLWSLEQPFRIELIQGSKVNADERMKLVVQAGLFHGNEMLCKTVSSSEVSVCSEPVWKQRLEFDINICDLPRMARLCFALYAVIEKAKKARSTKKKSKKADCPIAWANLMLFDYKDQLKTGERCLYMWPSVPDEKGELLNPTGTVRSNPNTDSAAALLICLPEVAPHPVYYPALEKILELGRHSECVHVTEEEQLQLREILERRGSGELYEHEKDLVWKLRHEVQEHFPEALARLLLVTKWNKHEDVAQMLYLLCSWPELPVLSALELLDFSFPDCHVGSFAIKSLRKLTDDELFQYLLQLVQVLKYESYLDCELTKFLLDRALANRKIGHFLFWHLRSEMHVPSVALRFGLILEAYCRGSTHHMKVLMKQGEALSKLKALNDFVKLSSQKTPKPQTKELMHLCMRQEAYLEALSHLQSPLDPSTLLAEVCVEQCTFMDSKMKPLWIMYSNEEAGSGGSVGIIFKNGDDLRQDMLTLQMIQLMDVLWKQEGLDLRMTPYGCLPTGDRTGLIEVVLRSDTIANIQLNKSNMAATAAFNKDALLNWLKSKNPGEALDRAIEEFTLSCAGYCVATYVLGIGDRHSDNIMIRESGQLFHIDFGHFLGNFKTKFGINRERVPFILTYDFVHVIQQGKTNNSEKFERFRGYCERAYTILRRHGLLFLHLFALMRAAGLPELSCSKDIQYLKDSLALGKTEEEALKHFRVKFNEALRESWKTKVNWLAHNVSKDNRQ

[5] = test system: protein kinases
[6] = test system: passive cutaneous anaphylaxis (PCA); conditions: absence of functional delta (compound or p110δ D910A mice)

SMILES | onset of disease in a model of systemic lupus erythematosis [1] | efficacy in a mouse model of rheumatoid arthritis [2] | inflammation and disease in a murine model of asthma [3] | inhibits p110δ [4] | activity against any protein kinases tested [5] | passive cutaneous anaphylaxis (PCA) [6]
O=C1NC(=O)/C(=C\c2ccc3nccnc3c2)S1 [AS 605240] | delay onset of disease | efficacious | – | – | – | –
Cc1ccccc1-n1c(Cn2cnc3c(N)ncnc32)nc2cccc(C)c2c1=O [IC87114] | – | – | significantly ameliorate | high nanomolar range (triple digit) | no activity | significantly reduced
